The source of these data is patent US9179682B2, “Biocides and apparatus” (A.Y. Laboratories Ltd., priority 2004, dated 2015).

This series in a line: Reduction of Na2S: total sulfur and sulfate after addition of oxidizer, Series 7. Particulars: 100 ml DI water with ~5 mg sodium sulfide; several days after addition of oxidizer.

Description: A series of containers each containing 100 ml DI water in which ˜5 mg of sodium sulfide was dissolved were prepared. To each container an appropriate amount of an oxidizer or a control solution was added as follows: • a. […] Monochloroamine (MCA) formed from ammonium sulfate and NaOCl (1:1 molar ratio, each component pre-diluted before mixing, 15 ppm as total chlorine). • d.
Samples were analyzed for total sulfur and for sulfate several days after addition of oxidizer.

Consider `O=N[O-].[Na+]` [Test A, NaNO2], for which the “% S remaining” value amounted to 100%.
